Laboratory results taken from PubChem BioAssay AID435010 (Broad Institute, 2010).
Results filed as inconclusive are left out. Calls of active or inactive are those of the source. The rule behind the calls is not given here.

target: Protein RecA (Mycobacterium tuberculosis (strain ATCC 25618 / H37Rv)) (UniProt P9WHJ3); assay: Inhibitors of Mycobacterium tuberculosis RecA intein splicing, fluorescence, dose retest (AID 435010); conditions: cell-free RecA-intein splicing
Sequence (P9WHJ3 whole entry, looked up): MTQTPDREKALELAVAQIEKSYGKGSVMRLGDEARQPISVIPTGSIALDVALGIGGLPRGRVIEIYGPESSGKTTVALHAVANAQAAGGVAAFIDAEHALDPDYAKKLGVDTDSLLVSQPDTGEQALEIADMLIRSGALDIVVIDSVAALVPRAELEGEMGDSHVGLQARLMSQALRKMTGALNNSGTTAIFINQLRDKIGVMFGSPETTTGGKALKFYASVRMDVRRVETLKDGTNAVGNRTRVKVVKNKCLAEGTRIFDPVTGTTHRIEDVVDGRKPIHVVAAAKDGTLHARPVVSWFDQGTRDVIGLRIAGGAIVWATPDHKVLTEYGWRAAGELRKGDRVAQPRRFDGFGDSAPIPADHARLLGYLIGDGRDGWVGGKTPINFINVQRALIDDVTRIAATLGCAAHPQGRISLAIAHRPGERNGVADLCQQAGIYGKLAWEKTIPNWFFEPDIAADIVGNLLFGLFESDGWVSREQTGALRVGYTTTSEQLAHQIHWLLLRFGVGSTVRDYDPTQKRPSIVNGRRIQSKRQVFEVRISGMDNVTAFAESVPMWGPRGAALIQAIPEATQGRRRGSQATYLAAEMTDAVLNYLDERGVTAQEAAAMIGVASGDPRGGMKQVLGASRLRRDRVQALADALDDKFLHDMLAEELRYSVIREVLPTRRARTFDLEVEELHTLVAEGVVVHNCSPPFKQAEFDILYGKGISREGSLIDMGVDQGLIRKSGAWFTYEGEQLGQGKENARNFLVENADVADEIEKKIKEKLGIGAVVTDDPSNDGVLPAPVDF

Structure (SMILES)	EC50
N[C@@H]1CCCC[C@H]1N.O=C(O)C(=O)O.[Pt]	32.5 µM
CC1=NN(Cc2ccccc2)C(=O)/C1=C\c1ccc(N(C)C)cc1	> 38 µM (inactive)
O=C(CCCN1C(=O)/C(=C/c2ccccc2)SC1=S)Nc1ccc(O)cc1	> 38 µM (inactive)
